Data as given in patent publication EP1283052A1, “Pharmaceutical composition containing caspase-8 and /or caspase-9 useful for overcoming glucocorticoid- and cancer therapy-induced apoptosis of tumours” (Deutsches Krebsforschungszentrum Stiftung des öffentlichen …, priority 2001, dated 2003).

What was measured:
Format in all cases: cell-based, human
caspase-3 = assay: Fluorometric caspase-3 activity assay in carcinoma cells; settings: P5 and P693 cells, cisplatin 2 µg/ml alone; Fig. 1c
Procedure: • (a) Human epidermoid lung cancer cells (P693) were injected into nude mice. At a tumour volume of 500 mm^3 weekly treatment with cisplatin (5mg/kg/week) was started. Cisplatin was injected intraperitoneally in the absence (CIS) or presence (DEX/CIS) of DEX which was added to the drinking water (0.28 mg/L) for the duration of the experiment. […] As controls, tumor growth of xenografts from mice which received neither cisplatin nor DEX (CO) or from mice which received DEX only (DEX) was determined. The tumour volume in each animal was measured at weekly intervals for a period of 5 weeks. Data are presented as the means +/- SD of 6 to 8 animals. • (b) The human cervical carcinoma cell lines HeLa and P5 were γ-irradiated (10 Gy) or treated with cisplatin (2 µg/ml) in the absence (white bars) or presence (black bars) of DEX (1 µM). The percentage of apoptosis was measured in untreated (CO) and stimulated cells by annexin-staining and FACS-analysis at the time points indicated. (c) P5, P693 and human leukemic T cells (CEM) cells were treated with cisplatin (2 µg/ml) in the absence or presence of DEX as indicated. 24 and 48 h following treatment cells were lysed and caspase-3 activity was determined by a fluorescent caspase-3 assay and spectroscopy.

caspase-8 = assay: Fluorometric caspase-8 activity assay in CEM cells; settings: cisplatin 2 µg/ml alone, Fig. 2b
Procedure: (§1) • (a) Left: P5 an CEM cells were treated with cisplatin (1-5 µg/ml) in the absence or presence of DEX (1 µM) as indicated. Proteins were extracted and expression of CD95-L, TRAIL or TNF-α was detected by Western blot analysis. The size of the proteins in kDa is indicated. Right: HeLa and P5 were treated with CD95 agonistic antibody αAPO-1 (CD95, 1 µg/ml), recombinant TRAIL protein (TRAIL, 100 ng/ml) or recombinant TNF-α protein (TNF-α, 100 ng/ml) in the absence (white bars) or presence (black bars) of DEX (1 µM). 24 h later the percentage of apoptosis was determined by annexin-staining and FACS-analysis in untreated (CO) and stimulated cells at the time points indicated. • (b) P693 and CEM cells were treated with cisplatin (2 µg/ml) in the absence or presence of DEX as indicated. 24 and 48 h following treatment cells were lysed and caspase-8 activity was determined by a fluorescent caspase-8 assay and spectroscopy. • (c) P5 cells were stable transfected with empty vector (pcDNA3), or pcDNA3 vector encoding dominant negative FADD protein (FADD-DN). Proteins were extracted from both cell lines and expression of wildtype (WT) and FADD-DN (DN) was detected by Western blot. Left: Stable transfected P5 cells were treated with αAPO-1 (1 µg/ml) and 24 h later apoptosis was determined by staining with annexin/propidium iodide and flow-cytometry. […]

P5 cells = assay: Specific apoptosis in P5 cells stably transfected with pcDNA3 or FADD-DN; settings: 48 h, cisplatin 2 µg/ml; Fig. 2c right
Procedure: as §1

With `N.N.[Cl][Pt][Cl]` [cisplatin] the caspase-3 activity (caspase-3) was “induced 48 h following cisplatin”, the “activity of caspase-8” value (caspase-8) was “responded earlier at 24 h with increased activity at 48 h” and the cisplatin-induced apoptosis (P5 cells) was “about 80%”.
